Experimental data reported in PubChem BioAssay AID248 (DTP/NCI, 2004).
“And” between values parts separate entries of the source, which are not always exact repeats. Identical values can stand only once. Inconclusive results and toxic doses are left out. No stated cut-off is given here; in the data, active means T/C of 150% or more; inactive means T/C below 125%.

Test system: L1210 leukemia ip in BDF1 mice, survival T/C
Assay: NCI In Vivo Anticancer Drug Screen. Data for tumor model L1210 Leukemia (intraperitoneal) in B6D2F1 (BDF1) mice
Conditions: endpoint: mean survival time, higher = longer survival
In short: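 Tumor was transplanted into mice, which were then dosed with test compound or vehicle alone. Survival was recorded for each group, and the treated figure was expressed relative to the control figure.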

[1] = dose: 100.0 mg/kg/injection, schedule: Q01DX009 (ip), vehicle: saline with Tween-80
[2] = dose: 200.0 mg/kg/injection, schedule: Q01DX009 (ip), vehicle: saline with Tween-80
[3] = dose: 400.0 mg/kg/injection, schedule: Q01DX009 (ip), vehicle: saline with Tween-80
[4] = dose: 100.0 mg/kg/injection, schedule: Q01DX009 (ip), vehicle: Klucel (hydroxypropylcellulose) (HPC)
[5] = dose: 100.0 mg/kg/injection, schedule: Q04DX003 (ip), vehicle: Klucel (hydroxypropylcellulose) (HPC)
[6] = dose: 200.0 mg/kg/injection, schedule: Q01DX009 (ip), vehicle: Klucel (hydroxypropylcellulose) (HPC)
[7] = dose: 200.0 mg/kg/injection, schedule: Q04DX003 (ip), vehicle: Klucel (hydroxypropylcellulose) (HPC)
[8] = dose: 400.0 mg/kg/injection, schedule: Q04DX003 (ip), vehicle: Klucel (hydroxypropylcellulose) (HPC)
[9] = dose: 100.0 mg/kg/injection, schedule: Q01DX001 (ip), vehicle: saline with Tween-80
[10] = dose: 200.0 mg/kg/injection, schedule: Q01DX001 (ip), vehicle: saline with Tween-80
[11] = dose: 100.0 mg/kg/injection, schedule: Q04DX003 (ip), vehicle: saline with Tween-80
[12] = dose: 200.0 mg/kg/injection, schedule: Q04DX003 (ip), vehicle: saline with Tween-80
[13] = dose: 400.0 mg/kg/injection, schedule: Q04DX003 (ip), vehicle: saline with Tween-80
[14] = dose: 12.5 mg/kg/injection, schedule: Q01DX009 (ip), vehicle: Klucel (hydroxypropylcellulose) (HPC)
[15] = dose: 12.5 mg/kg/injection, schedule: Q04DX003 (ip), vehicle: saline with Tween-80
[16] = dose: 25.0 mg/kg/injection, schedule: Q04DX003 (ip), vehicle: saline with Tween-80
[17] = dose: 50.0 mg/kg/injection, schedule: Q01DX001 (ip), vehicle: saline
[18] = dose: 50.0 mg/kg/injection, schedule: Q01DX009 (ip), vehicle: Klucel (hydroxypropylcellulose) (HPC)
[19] = dose: 50.0 mg/kg/injection, schedule: Q04DX003 (ip), vehicle: saline with Tween-80
[20] = dose: 100.0 mg/kg/injection, schedule: Q01DX001 (ip), vehicle: saline
[21] = dose: 200.0 mg/kg/injection, schedule: Q01DX001 (ip), vehicle: saline
[22] = dose: 400.0 mg/kg/injection, schedule: Q01DX001 (ip), vehicle: saline
[23] = dose: 5.0 mg/kg/injection, schedule: Q01DX001 (ip), vehicle: saline
[24] = dose: 10.0 mg/kg/injection, schedule: Q01DX001 (ip), vehicle: saline
[25] = dose: 20.0 mg/kg/injection, schedule: Q01DX001 (ip), vehicle: saline

Measured: T/C

CCOc1ccc(P2(=S)SP(=S)(c3ccc(OCC)cc3)S2)cc1 (centres undefined)
inactive: [1] 97 % of control | dose: 100.0 mg/kg/injection, schedule: Q04DX002 (ip), vehicle: Klucel (hydroxypropylcellulose) (HPC) 94 % of control | [2] 91 % of control | dose: 200.0 mg/kg/injection, schedule: Q04DX002 (ip), vehicle: Klucel (hydroxypropylcellulose) (HPC) 88 % of control | [3] 102 % of control | dose: 400.0 mg/kg/injection, schedule: Q04DX002 (ip), vehicle: Klucel (hydroxypropylcellulose) (HPC) 102 % of control

COc1ccnc(SCc2ccccc2)n1
inactive: [4] 97 % of control | [5] 100 % of control | [6] 95 % of control | [7] 100 % of control | [8] 102 % of control

N#Cc1[nH]cnc1/N=N/N(CCF)CCF
inactive: dose: 9.5 mg/kg/injection, schedule: Q01DX009 (ip), vehicle: saline with Tween-80 101 % of control | dose: 18.0 mg/kg/injection, schedule: Q01DX009 (ip), vehicle: saline with Tween-80 121 % of control | dose: 18.0 mg/kg/injection, schedule: Q04DX003 (ip), vehicle: saline with Tween-80 98 % of control | dose: 37.0 mg/kg/injection, schedule: Q04DX003 (ip), vehicle: saline with Tween-80 116 % of control

O=C(CCN1CC1)NCCc1ccccc1
inactive: dose: 20.0 mg/kg/injection, schedule: Q04DX003 (ip), vehicle: Klucel (hydroxypropylcellulose) (HPC) 92 % of control | dose: 40.0 mg/kg/injection, schedule: Q04DX003 (ip), vehicle: Klucel (hydroxypropylcellulose) (HPC) 95 % of control | [5] 86 % of control

Cc1c(Cl)cccc1NC(=S)NC(=O)c1ccccc1
inactive: dose: 100.0 mg/kg/injection, schedule: Q04DX002 (ip), vehicle: saline with Tween-80 110 % of control | dose: 200.0 mg/kg/injection, schedule: Q04DX002 (ip), vehicle: saline with Tween-80 100 % of control | dose: 400.0 mg/kg/injection, schedule: Q04DX002 (ip), vehicle: saline with Tween-80 89 % of control

Cc1ccc(-c2cc(=S)ss2)cc1
inactive: dose: 100.0 mg/kg/injection, schedule: Q01DX001 (ip), vehicle: carboxymethylcellulose (CMC) 100 % of control | dose: 200.0 mg/kg/injection, schedule: Q01DX001 (ip), vehicle: carboxymethylcellulose (CMC) 92 % of control | dose: 400.0 mg/kg/injection, schedule: Q01DX001 (ip), vehicle: carboxymethylcellulose (CMC) 94 % of control

O=[N+]([O-])c1ccc(SNc2ccc(O)cc2)cc1[N+](=O)[O-]
inactive: [4] 101 % of control | [5] 94 % of control | [6] 100 % of control | [7] 100 % of control | dose: 400.0 mg/kg/injection, schedule: Q01DX009 (ip), vehicle: Klucel (hydroxypropylcellulose) (HPC) 105 % of control | [8] 95 % of control

CC(C)=CCC/C(C)=C/Cn1ccccc1=O
inactive: [9] 98 % of control | [10] 98 % of control

C1=CC2C3CCC(C3)C2C1 (centres undefined)
inactive: dose: 50.0 mg/kg/injection, schedule: Q01DX009 (ip), vehicle: saline with Tween-80 96 % of control | [1] 102 % of control and 88 % of control | [11] 98 % of control and 101 % of control | [2] 94 % of control and 108 % of control | [12] 93 % of control and 101 % of control | [3] 95 % of control | [13] 93 % of control and 96 % of control

N#C/C(N)=C(\C#N)N=Cc1ccc(-c2ccccc2)cc1
inactive: [9] 97 % of control | [10] 92 % of control | dose: 400.0 mg/kg/injection, schedule: Q01DX001 (ip), vehicle: saline with Tween-80 93 % of control

COC1OC2COC(c3ccccc3)OC2C(=O)C1OS(=O)(=O)c1ccc(C)cc1 (centres undefined)
inactive: [12] 89 % of control | [13] 86 % of control

CCCCN(CCCC)CCNc1ccc(Cl)c2oc3cc(C)ccc3c(=O)c12
inactive: [14] 95 % of control | [15] 94 % of control | dose: 25.0 mg/kg/injection, schedule: Q01DX009 (ip), vehicle: Klucel (hydroxypropylcellulose) (HPC) 92 % of control | [16] 95 % of control | [17] 93 % of control | [18] 93 % of control | [19] 87 % of control | [20] 98 % of control | [4] 95 % of control | [21] 93 % of control | [22] 98 % of control

CCOC(=O)N(C)C1CCC1NC (centres undefined)
inactive: dose: 100.0 mg/kg/injection, schedule: Q04DX003 (ip), vehicle: saline 98 % of control | dose: 200.0 mg/kg/injection, schedule: Q04DX003 (ip), vehicle: saline 112 % of control | dose: 400.0 mg/kg/injection, schedule: Q04DX003 (ip), vehicle: saline 104 % of control

CSc1nc(Cl)c(Cl)c(SC)n1 (tested in a mixture with another compound)
inactive: [18] 87 % of control | [4] 87 % of control

COc1cc(=O)n2cc(C)ccc2n1
inactive: [17] 98 % of control | [20] 101 % of control | [21] 95 % of control | [22] 90 % of control

O=C(C[n+]1ccc2ccccc2c1)c1ccc2ccccc2c1
inactive: dose: 6.25 mg/kg/injection, schedule: Q01DX009 (ip), vehicle: saline with Tween-80 95 % of control | dose: 12.5 mg/kg/injection, schedule: Q01DX009 (ip), vehicle: saline with Tween-80 87 % of control | dose: 25.0 mg/kg/injection, schedule: Q01DX009 (ip), vehicle: saline with Tween-80 90 % of control

O=c1ccccn1CCc1ccccc1
inactive: [15] 95 % of control | [16] 101 % of control | [19] 97 % of control

CC(C)(C)OOC(=O)C1(F)CC1(c1ccccc1)c1ccccc1 (centres undefined)
inactive: dose: 50.0 mg/kg/injection, schedule: Q01DX001 (ip), vehicle: Klucel (hydroxypropylcellulose) (HPC) 100 % of control | dose: 100.0 mg/kg/injection, schedule: Q01DX001 (ip), vehicle: Klucel (hydroxypropylcellulose) (HPC) 100 % of control | dose: 200.0 mg/kg/injection, schedule: Q01DX001 (ip), vehicle: Klucel (hydroxypropylcellulose) (HPC) 109 % of control

CC12CC3CC(C)(C1)CC(CN=C(N)CCl)(C3)C2
inactive: dose: 6.25 mg/kg/injection, schedule: Q01DX009 (ip), vehicle: Klucel (hydroxypropylcellulose) (HPC) 106 % of control | [14] 100 % of control | dose: 12.5 mg/kg/injection, schedule: Q04DX002 (ip), vehicle: Klucel (hydroxypropylcellulose) (HPC) 96 % of control | dose: 25.0 mg/kg/injection, schedule: Q04DX002 (ip), vehicle: Klucel (hydroxypropylcellulose) (HPC) 96 % of control

COc1cccc(CC(=O)NCCc2ccc(OC)c(OC)c2)c1
inactive: [1] 92 % of control | [11] 92 % of control | [2] 95 % of control | [12] 94 % of control | [3] 90 % of control | [13] 91 % of control

N#C[S-].N#C[S-].N#C[S-].N#C[S-].[Co]
inactive: [23] 96 % of control | [24] 104 % of control | [25] 106 % of control

C/C=C(/Cl)C(=O)O
inactive: [23] 100 % of control | [24] 97 % of control | [25] 97 % of control | dose: 40.0 mg/kg/injection, schedule: Q01DX001 (ip), vehicle: saline 103 % of control | dose: 80.0 mg/kg/injection, schedule: Q01DX001 (ip), vehicle: saline 103 % of control

CC(=O)Nc1cc2ccccc2[n+](C)c1
inactive: dose: 12.5 mg/kg/injection, schedule: Q04DX003 (ip), vehicle: Klucel (hydroxypropylcellulose) (HPC) 94 % of control | dose: 25.0 mg/kg/injection, schedule: Q04DX003 (ip), vehicle: Klucel (hydroxypropylcellulose) (HPC) 98 % of control | dose: 50.0 mg/kg/injection, schedule: Q04DX003 (ip), vehicle: Klucel (hydroxypropylcellulose) (HPC) 96 % of control
